According to PubChem BioAssay (NCI):
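Exposure lasted 48 hours, with cells grown in 96-well plates and compounds tested at five concentrations. GI50: concentration for 50% inhibition of growth. TGI: total growth inhibition.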

What was measured:
Assay in all cases: DTP human tumour cell line panel, 48 h
A549 NSCLC = system: A549 NSCLC
UO-31 renal = system: UO-31 renal
NCI-H226 lung = system: NCI-H226 lung
SN12C renal = system: SN12C renal
HCC-2998 colon = system: HCC-2998 colon
OVCAR-3 ovarian = system: OVCAR-3 ovarian
MDA-MB-231 breast = system: MDA-MB-231 breast
SK-MEL-5 melanoma = system: SK-MEL-5 melanoma
MDA-MB-435 = system: MDA-MB-435
MCF7 breast = system: MCF7 breast
SNB-19 CNS = system: SNB-19 CNS
OVCAR-5 ovarian = system: OVCAR-5 ovarian
KM12 colon = system: KM12 colon
MOLT-4 leukemia = system: MOLT-4 leukemia
RXF 393 renal = system: RXF 393 renal
SF-268 CNS = system: SF-268 CNS
NCI-H460 lung = system: NCI-H460 lung
OVCAR-4 ovarian = system: OVCAR-4 ovarian
LOX IMVI melanoma = system: LOX IMVI melanoma
HCT-116 colon = system: HCT-116 colon
OVCAR-8 ovarian = system: OVCAR-8 ovarian
U251 CNS = system: U251 CNS
NCI/ADR-RES ovarian = system: NCI/ADR-RES ovarian
PC-3 prostate = system: PC-3 prostate
TK-10 renal = system: TK-10 renal
A498 renal = system: A498 renal
COLO 205 colon = system: COLO 205 colon
RPMI-8226 leukemia = system: RPMI-8226 leukemia
SK-OV-3 ovarian = system: SK-OV-3 ovarian
M14 melanoma = system: M14 melanoma
CCRF-CEM leukemia = system: CCRF-CEM leukemia
UACC-257 melanoma = system: UACC-257 melanoma
786-0 renal = system: 786-0 renal
HOP-92 NSCLC = system: HOP-92 NSCLC
NCI-H522 lung = system: NCI-H522 lung
UACC-62 melanoma = system: UACC-62 melanoma
T-47D breast = system: T-47D breast
SW-620 colon = system: SW-620 colon
SNB-75 CNS = system: SNB-75 CNS
HT29 colon = system: HT29 colon
EKVX NSCLC = system: EKVX NSCLC
HCT-15 colon = system: HCT-15 colon
HOP-62 NSCLC = system: HOP-62 NSCLC
SK-MEL-28 melanoma = system: SK-MEL-28 melanoma
CAKI-1 renal = system: CAKI-1 renal
SK-MEL-2 melanoma = system: SK-MEL-2 melanoma
ACHN renal = system: ACHN renal
K-562 leukemia = system: K-562 leukemia
DU-145 prostate = system: DU-145 prostate
SF-295 CNS = system: SF-295 CNS

Structure (SMILES): CCCCCCCN=C(N)c1ccc(N2CCN(c3ccc(C(N)=NCCCCCCC)cc3)CC2)cc1
- GI50 (A549 NSCLC): 260 nM
- TGI (A549 NSCLC): 15000 nM
- GI50 (UO-31 renal): 781 nM
- TGI (UO-31 renal): > 100000 nM
- GI50 (NCI-H226 lung): 2130 nM
- TGI (NCI-H226 lung): > 100000 nM
- GI50 (SN12C renal): 1080 nM
- TGI (SN12C renal): 14700 nM
- GI50 (HCC-2998 colon): 23.1 nM
- TGI (HCC-2998 colon): 163 nM
- GI50 (OVCAR-3 ovarian): 162 nM
- TGI (OVCAR-3 ovarian): 517 nM
- GI50 (MDA-MB-231 breast): 165 nM
- TGI (MDA-MB-231 breast): 703 nM
- TGI (SK-MEL-5 melanoma): 14.1 nM
- GI50 (MDA-MB-435): 25.4 nM
- TGI (MDA-MB-435): 99.2 nM
- GI50 (MCF7 breast): 208 nM
- GI50 (SNB-19 CNS): 643 nM
- TGI (SNB-19 CNS): 17400 nM
- GI50 (OVCAR-5 ovarian): 849 nM
- TGI (OVCAR-5 ovarian): 29300 nM
- GI50 (KM12 colon): > 100000 nM
- TGI (KM12 colon): > 100000 nM
- GI50 (MOLT-4 leukemia): 2710 nM
- TGI (MOLT-4 leukemia): > 100000 nM
- GI50 (RXF 393 renal): 2460 nM
- TGI (RXF 393 renal): 6690 nM
- TGI (SF-268 CNS): 317 nM
- TGI (NCI-H460 lung): > 80800 nM
- GI50 (OVCAR-4 ovarian): 1050 nM
- TGI (OVCAR-4 ovarian): > 13200 nM
- GI50 (LOX IMVI melanoma): 1520 nM
- TGI (LOX IMVI melanoma): 19100 nM
- TGI (HCT-116 colon): > 72100 nM
- GI50 (OVCAR-8 ovarian): 376 nM
- TGI (OVCAR-8 ovarian): 7340 nM
- GI50 (U251 CNS): 1450 nM
- TGI (U251 CNS): 9340 nM
- GI50 (NCI/ADR-RES ovarian): 1380 nM
- TGI (NCI/ADR-RES ovarian): > 57700 nM
- GI50 (PC-3 prostate): 268 nM
- TGI (PC-3 prostate): > 20000 nM
- GI50 (TK-10 renal): 146 nM
- TGI (TK-10 renal): 1930 nM
- GI50 (A498 renal): 3320 nM
- TGI (A498 renal): > 100000 nM
- GI50 (COLO 205 colon): 1540 nM
- TGI (COLO 205 colon): > 52600 nM
- GI50 (RPMI-8226 leukemia): 785 nM
- TGI (RPMI-8226 leukemia): > 100000 nM
- GI50 (SK-OV-3 ovarian): 735 nM
- TGI (SK-OV-3 ovarian): > 26400 nM
- GI50 (M14 melanoma): 7290 nM
- TGI (M14 melanoma): > 100000 nM
- GI50 (CCRF-CEM leukemia): 1100 nM
- TGI (CCRF-CEM leukemia): > 100000 nM
- GI50 (UACC-257 melanoma): 1240 nM
- TGI (UACC-257 melanoma): 4390 nM
- GI50 (786-0 renal): 596 nM
- TGI (786-0 renal): > 100000 nM
- GI50 (HOP-92 NSCLC): 463 nM
- TGI (HOP-92 NSCLC): > 100000 nM
- TGI (NCI-H522 lung): 35.1 nM
- GI50 (UACC-62 melanoma): 346 nM
- TGI (T-47D breast): > 93400 nM
- GI50 (SW-620 colon): 259 nM
- TGI (SW-620 colon): > 31700 nM
- GI50 (SNB-75 CNS): 2750 nM
- TGI (SNB-75 CNS): 7670 nM
- GI50 (HT29 colon): 2980 nM
- TGI (HT29 colon): > 100000 nM
- GI50 (EKVX NSCLC): 175 nM
- TGI (EKVX NSCLC): 2940 nM
- GI50 (HCT-15 colon): 450 nM
- TGI (HCT-15 colon): > 61900 nM
- GI50 (HOP-62 NSCLC): 2500 nM
- TGI (HOP-62 NSCLC): > 100000 nM
- GI50 (SK-MEL-28 melanoma): 2080 nM
- TGI (SK-MEL-28 melanoma): > 22400 nM
- GI50 (CAKI-1 renal): 474 nM
- TGI (CAKI-1 renal): 21400 nM
- GI50 (SK-MEL-2 melanoma): 1990 nM
- TGI (SK-MEL-2 melanoma): > 100000 nM
- GI50 (ACHN renal): 499 nM
- TGI (ACHN renal): 24800 nM
- GI50 (K-562 leukemia): 147 nM
- TGI (K-562 leukemia): > 9410 nM
- GI50 (DU-145 prostate): 296 nM
- TGI (DU-145 prostate): 21800 nM
- GI50 (SF-295 CNS): 62.8 nM
- TGI (SF-295 CNS): 280 nM
